Assay results as given in ChEMBL document CHEMBL5696443 (Clin Cancer Res, 2016).
Active and inactive are the calls of the source. The rule behind the calls is not given here.

Columns and labels:
[1] = target: High affinity nerve growth factor receptor (Homo sapiens) (UniProt P04629); assay: Inhibition of human NTRK1 at 1 uM using poly (Glu, Tyr)4:1 as substrate in presence of [gamma33P]-ATP by HotSpot assay relative to control
[2] = target: Tyrosine-protein kinase FRK (Homo sapiens, UniProt P42685); assay: Inhibition of human FRK using RLGRDKYKTLRQIRQ as substrate in presence of [gamma33P]-ATP by HotSpot assay
Chain of Tyrosine-protein kinase FRK (P42685 whole entry): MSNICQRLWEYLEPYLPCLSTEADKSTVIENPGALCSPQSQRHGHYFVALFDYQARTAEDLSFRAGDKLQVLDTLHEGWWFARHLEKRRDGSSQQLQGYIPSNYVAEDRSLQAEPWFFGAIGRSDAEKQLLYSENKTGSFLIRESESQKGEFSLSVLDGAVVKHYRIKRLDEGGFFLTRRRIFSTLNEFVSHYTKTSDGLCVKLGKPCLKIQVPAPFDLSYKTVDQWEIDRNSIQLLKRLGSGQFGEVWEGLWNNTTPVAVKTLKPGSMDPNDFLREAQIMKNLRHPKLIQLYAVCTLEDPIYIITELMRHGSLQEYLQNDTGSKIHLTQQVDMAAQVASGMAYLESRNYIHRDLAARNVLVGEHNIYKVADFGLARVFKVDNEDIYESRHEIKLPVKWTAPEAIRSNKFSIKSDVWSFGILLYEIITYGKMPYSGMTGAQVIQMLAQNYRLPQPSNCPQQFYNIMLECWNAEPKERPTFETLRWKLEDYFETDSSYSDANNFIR

[3] = target: Serine/threonine-protein kinase 33 (Homo sapiens) (UniProt Q9BYT3); assay: Inhibition of human STK33 at 1 uM using MBP as substrate in presence of [gamma33P]-ATP by HotSpot assay relative to control
[4] = tested on: EML4-ALK (Homo sapiens), Q9UM73+Q9HC35 [S1206F]; settings: BaF3, dose 500.0 nmol/L, time 3-5 weeks
[5] = target: CDK3/Cyclin E (Homo sapiens) (UniProt P24864+Q00526); assay: Inhibition of human CDK3/CyclinE at 1 uM using RB protein as substrate in presence of [gamma33P]-ATP by HotSpot assay relative to control; format: protein-complex assay
Chain of CDK3/Cyclin E (Homo sapiens) (P24864 whole entry, looked up): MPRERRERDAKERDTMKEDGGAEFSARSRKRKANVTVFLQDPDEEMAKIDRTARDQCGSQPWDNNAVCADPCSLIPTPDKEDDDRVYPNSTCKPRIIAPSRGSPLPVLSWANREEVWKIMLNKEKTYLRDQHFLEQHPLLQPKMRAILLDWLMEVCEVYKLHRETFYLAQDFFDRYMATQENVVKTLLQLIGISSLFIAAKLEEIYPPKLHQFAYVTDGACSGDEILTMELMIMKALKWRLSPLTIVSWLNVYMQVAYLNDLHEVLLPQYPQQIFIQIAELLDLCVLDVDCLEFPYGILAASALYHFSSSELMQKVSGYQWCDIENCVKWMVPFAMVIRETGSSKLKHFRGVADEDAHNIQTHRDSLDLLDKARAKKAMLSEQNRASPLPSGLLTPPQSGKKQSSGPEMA
Chain of CDK3/Cyclin E (Homo sapiens) (Q00526 whole entry, looked up): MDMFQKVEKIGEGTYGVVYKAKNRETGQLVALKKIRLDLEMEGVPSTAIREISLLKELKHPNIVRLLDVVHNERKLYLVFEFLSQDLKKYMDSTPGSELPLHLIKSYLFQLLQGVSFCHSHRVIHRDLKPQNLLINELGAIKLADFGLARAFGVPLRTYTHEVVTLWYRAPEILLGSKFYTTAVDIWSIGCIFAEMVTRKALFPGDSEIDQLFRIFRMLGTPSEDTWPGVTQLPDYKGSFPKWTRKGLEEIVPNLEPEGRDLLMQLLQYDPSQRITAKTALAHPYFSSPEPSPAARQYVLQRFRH

[6] = target: Casein kinase II subunit alpha (Homo sapiens) (UniProt P68400); assay: Inhibition of human CK2a at 1 uM using RRRDDDSDDD as substrate in presence of [gamma33P]-ATP by HotSpot assay relative to control
[7] = target: Mitogen-activated protein kinase kinase kinase 14 (Homo sapiens) (UniProt Q99558); assay: Inhibition of human MAP3K14 at 1 uM using MBP as substrate in presence of [gamma33P]-ATP by HotSpot assay relative to control
[8] = tested on: EML4-ALK (Homo sapiens), Q9UM73+Q9HC35 [E1210K]; settings: BaF3, dose 500.0 nmol/L, time 3-5 weeks
[9] = target: Mitogen-activated protein kinase 1 (Homo sapiens) (UniProt P28482); assay: Inhibition of human MAPK1 at 1 uM using MBP as substrate in presence of [gamma33P]-ATP by HotSpot assay relative to control
Chain of Mitogen-activated protein kinase 1 (Homo sapiens) (P28482 whole entry): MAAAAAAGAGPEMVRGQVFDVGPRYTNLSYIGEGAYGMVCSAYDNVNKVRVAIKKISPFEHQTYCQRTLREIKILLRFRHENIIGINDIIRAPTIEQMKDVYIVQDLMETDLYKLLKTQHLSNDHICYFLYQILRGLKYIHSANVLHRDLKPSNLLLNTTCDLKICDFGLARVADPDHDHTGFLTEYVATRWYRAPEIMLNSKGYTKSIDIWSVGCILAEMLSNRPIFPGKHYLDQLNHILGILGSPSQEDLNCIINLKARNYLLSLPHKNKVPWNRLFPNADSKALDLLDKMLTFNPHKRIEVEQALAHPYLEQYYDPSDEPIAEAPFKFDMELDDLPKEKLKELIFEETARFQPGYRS

[10] = target: Interleukin-1 receptor-associated kinase 1 (Homo sapiens) (UniProt P51617); assay: Inhibition of human IRAK1 at 1 uM using MBP as substrate in presence of [gamma33P]-ATP by HotSpot assay relative to control
[11] = target: Tyrosine-protein kinase Fer (Homo sapiens, UniProt P16591); assay: Inhibition of human FER using poly (Glu, Tyr)4:1 as substrate in presence of [gamma33P]-ATP by HotSpot assay
[12] = target: Serine/threonine-protein kinase PAK 1 (Homo sapiens) (UniProt Q13153); assay: Inhibition of human PAK1 at 1 uM using RRRLSFAEPG as substrate in presence of [gamma33P]-ATP by HotSpot assay relative to control
[13] = tested on: EML4-ALK (Homo sapiens), Q9UM73+Q9HC35 [UNDEFINED MUTATION]; settings: BaF3, time 3-5 weeks
[14] = target: Serine/threonine-protein kinase PAK 5 (Homo sapiens) (UniProt Q9P286); assay: Inhibition of human PAK5 at 1 uM using RRRLSFAEPG as substrate in presence of [gamma33P]-ATP by HotSpot assay relative to control
[15] = target: RAC-alpha serine/threonine-protein kinase (Homo sapiens) (UniProt P31749); assay: Inhibition of human AKT1 at 1 uM using KGSGSGRPRTSSFAEG as substrate in presence of [gamma33P]-ATP by HotSpot assay relative to control
[16] = target: Serine/threonine-protein kinase Chk2 (Homo sapiens, UniProt O96017, I157T); assay: Inhibition of human CHEK2 I157T mutant using KKKVSRSGLYRSPSMPENLNRPR as substrate in presence of [gamma33P]-ATP by HotSpot assay
[17] = target: Serine/threonine-protein kinase Nek4 (Homo sapiens) (UniProt P51957); assay: Inhibition of human NEK4 at 1 uM using MBP as substrate in presence of [gamma33P]-ATP by HotSpot assay relative to control
[18] = target: Serine/threonine-protein kinase NLK (Homo sapiens) (UniProt Q9UBE8); assay: Inhibition of human NLK at 1 uM using MBP as substrate in presence of [gamma33P]-ATP by HotSpot assay relative to control
Chain of Serine/threonine-protein kinase NLK (Homo sapiens) (Q9UBE8 whole entry): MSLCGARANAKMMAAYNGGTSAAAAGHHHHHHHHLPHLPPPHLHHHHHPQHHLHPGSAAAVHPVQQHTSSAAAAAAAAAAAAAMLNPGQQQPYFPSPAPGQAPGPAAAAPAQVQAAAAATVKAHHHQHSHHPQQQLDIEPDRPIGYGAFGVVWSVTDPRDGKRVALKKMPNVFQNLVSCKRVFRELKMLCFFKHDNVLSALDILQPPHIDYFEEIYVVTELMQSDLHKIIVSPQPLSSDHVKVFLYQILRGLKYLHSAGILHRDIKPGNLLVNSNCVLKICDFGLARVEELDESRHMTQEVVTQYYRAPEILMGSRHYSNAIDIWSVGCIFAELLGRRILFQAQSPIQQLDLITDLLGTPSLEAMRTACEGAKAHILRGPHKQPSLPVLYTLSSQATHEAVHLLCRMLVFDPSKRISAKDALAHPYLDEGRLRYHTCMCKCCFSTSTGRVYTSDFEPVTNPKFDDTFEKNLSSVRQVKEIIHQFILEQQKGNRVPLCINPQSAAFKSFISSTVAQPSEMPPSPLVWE

[19] = target: cGMP-dependent protein kinase 1 (Homo sapiens, UniProt Q13976); assay: Inhibition of human PRKG1 using LRRASLG as substrate in presence of [gamma33P]-ATP by HotSpot assay
[20] = tested on: EML4-ALK (Homo sapiens), Q9UM73+Q9HC35 [L1196M]; settings: BaF3, time 3-5 weeks
[21] = target: Serine/threonine-protein kinase Chk2 (Homo sapiens, UniProt O96017); assay: Inhibition of human CHEK2 using KKKVSRSGLYRSPSMPENLNRPR as substrate in presence of [gamma33P]-ATP by HotSpot assay
[22] = target: Mitogen-activated protein kinase kinase kinase kinase 2 (Homo sapiens) (UniProt Q12851); assay: Inhibition of human GCK at 1 uM using MBP as substrate in presence of [gamma33P]-ATP by HotSpot assay relative to control
Chain of Mitogen-activated protein kinase kinase kinase kinase 2 (Homo sapiens) (Q12851 whole entry): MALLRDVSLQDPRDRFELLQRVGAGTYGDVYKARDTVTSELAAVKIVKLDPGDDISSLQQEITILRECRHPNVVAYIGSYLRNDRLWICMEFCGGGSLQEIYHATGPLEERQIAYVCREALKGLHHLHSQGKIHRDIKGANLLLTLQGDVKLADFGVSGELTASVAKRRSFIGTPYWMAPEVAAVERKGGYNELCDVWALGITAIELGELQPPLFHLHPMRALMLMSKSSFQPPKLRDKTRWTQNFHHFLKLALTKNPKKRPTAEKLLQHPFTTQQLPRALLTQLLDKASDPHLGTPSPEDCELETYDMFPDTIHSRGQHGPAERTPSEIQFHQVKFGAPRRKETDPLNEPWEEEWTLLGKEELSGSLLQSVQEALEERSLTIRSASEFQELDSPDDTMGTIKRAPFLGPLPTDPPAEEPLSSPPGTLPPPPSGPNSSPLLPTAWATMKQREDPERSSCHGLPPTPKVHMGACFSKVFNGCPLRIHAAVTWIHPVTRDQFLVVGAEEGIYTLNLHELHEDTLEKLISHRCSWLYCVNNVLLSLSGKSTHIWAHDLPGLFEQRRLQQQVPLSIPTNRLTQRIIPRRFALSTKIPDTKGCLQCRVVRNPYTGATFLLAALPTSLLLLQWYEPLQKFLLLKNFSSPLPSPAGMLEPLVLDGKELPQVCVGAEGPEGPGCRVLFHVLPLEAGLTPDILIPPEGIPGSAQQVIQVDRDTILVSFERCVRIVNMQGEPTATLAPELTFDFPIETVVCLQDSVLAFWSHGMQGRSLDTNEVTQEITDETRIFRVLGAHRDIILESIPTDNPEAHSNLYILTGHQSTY

[23] = target: Serine/threonine-protein kinase pim-1 (Homo sapiens) (UniProt P11309); assay: Inhibition of human PIM1 at 1 uM using RSRHSSYPAGT as substrate in presence of [gamma33P]-ATP by HotSpot assay relative to control
[24] = target: Myosin light chain kinase 2, skeletal/cardiac muscle (Homo sapiens) (UniProt Q9H1R3); assay: Inhibition of human MYLK2 at 1 uM using KKLNRTLSFAEPG as substrate in presence of [gamma33P]-ATP by HotSpot assay relative to control
Chain of Myosin light chain kinase 2, skeletal/cardiac muscle (Homo sapiens) (Q9H1R3 whole entry): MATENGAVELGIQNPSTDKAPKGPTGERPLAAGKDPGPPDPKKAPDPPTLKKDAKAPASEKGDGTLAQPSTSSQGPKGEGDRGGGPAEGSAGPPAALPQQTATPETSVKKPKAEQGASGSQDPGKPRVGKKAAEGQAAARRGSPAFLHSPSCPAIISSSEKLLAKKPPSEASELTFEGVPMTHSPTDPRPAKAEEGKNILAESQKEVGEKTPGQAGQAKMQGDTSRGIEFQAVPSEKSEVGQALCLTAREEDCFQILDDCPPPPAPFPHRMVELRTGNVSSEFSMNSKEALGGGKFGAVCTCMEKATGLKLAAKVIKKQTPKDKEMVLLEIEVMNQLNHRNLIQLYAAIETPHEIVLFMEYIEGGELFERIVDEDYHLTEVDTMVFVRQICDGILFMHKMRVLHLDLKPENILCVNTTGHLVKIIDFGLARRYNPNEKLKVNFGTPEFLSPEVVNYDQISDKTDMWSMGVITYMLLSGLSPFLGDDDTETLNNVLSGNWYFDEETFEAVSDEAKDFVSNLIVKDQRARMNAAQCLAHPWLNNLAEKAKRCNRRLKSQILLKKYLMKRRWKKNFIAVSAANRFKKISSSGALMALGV

[25] = target: MAP kinase-interacting serine/threonine-protein kinase 2 (Homo sapiens) (UniProt Q9HBH9); assay: Inhibition of human MNK2 at 1 uM using MBP as substrate in presence of [gamma33P]-ATP by HotSpot assay relative to control
[26] = target: G protein-coupled receptor kinase 3 (Homo sapiens) (UniProt P35626); assay: Inhibition of human ADRBK2 at 1 uM using casein as substrate in presence of [gamma33P]-ATP by HotSpot assay relative to control
[27] = target: Cyclin-dependent kinase 5/CDK5 activator 1 (Homo sapiens) (UniProt Q00535+Q15078); assay: Inhibition of human CDK5/p35 at 1 uM using RB protein as substrate in presence of [gamma33P]-ATP by HotSpot assay relative to control; format: protein-complex assay
Chain of Cyclin-dependent kinase 5/CDK5 activator 1 (Homo sapiens) (Q00535 whole entry): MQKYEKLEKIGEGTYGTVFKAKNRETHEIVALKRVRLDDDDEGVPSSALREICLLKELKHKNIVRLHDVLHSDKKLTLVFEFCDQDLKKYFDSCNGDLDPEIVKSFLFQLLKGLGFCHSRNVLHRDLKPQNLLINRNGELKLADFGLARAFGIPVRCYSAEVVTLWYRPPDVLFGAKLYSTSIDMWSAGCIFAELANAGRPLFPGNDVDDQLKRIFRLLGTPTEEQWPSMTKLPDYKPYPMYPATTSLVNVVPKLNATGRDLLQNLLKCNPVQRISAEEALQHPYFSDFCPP
Chain of Cyclin-dependent kinase 5/CDK5 activator 1 (Homo sapiens) (Q15078 99-307 partner limits assumed): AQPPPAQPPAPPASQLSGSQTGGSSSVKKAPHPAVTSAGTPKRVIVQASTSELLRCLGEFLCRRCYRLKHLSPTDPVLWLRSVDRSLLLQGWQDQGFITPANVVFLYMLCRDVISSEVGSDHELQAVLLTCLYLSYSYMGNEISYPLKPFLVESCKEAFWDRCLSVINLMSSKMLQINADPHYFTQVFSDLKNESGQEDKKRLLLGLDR

[28] = target: [Pyruvate dehydrogenase (acetyl-transferring)] kinase isozyme 1, mitochondrial (Homo sapiens) (UniProt Q15118); assay: Inhibition of human PDK1 at 1 uM using MBP as substrate in presence of [gamma33P]-ATP by HotSpot assay relative to control

Chain of High affinity nerve growth factor receptor (Homo sapiens) (P04629 33-796 limits assumed): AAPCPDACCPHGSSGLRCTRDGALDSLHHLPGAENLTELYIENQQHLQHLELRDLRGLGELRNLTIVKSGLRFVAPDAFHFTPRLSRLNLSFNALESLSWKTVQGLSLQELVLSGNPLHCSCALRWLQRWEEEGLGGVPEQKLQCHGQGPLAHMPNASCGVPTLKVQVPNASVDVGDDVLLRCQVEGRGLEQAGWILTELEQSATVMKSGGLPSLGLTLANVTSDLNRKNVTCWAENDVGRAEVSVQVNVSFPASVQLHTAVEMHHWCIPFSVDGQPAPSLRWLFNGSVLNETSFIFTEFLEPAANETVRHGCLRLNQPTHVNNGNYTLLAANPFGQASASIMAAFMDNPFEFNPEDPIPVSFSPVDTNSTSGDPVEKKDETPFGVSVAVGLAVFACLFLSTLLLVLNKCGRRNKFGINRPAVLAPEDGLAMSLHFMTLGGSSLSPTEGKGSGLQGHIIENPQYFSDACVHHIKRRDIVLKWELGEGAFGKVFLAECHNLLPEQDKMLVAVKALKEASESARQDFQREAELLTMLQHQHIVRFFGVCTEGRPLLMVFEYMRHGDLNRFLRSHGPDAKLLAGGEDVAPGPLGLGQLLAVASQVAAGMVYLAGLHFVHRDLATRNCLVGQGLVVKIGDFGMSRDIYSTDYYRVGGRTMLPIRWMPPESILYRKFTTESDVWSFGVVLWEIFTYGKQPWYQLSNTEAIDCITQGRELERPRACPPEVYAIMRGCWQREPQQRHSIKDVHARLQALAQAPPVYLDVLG

For `COc1cc(N2CCC(N3CCN(C)CC3)CC2)ccc1Nc1ncc(Cl)c(Nc2ccccc2P(C)(C)=O)n1` [BRIGATINIB], the inhibition [1] was under 90%, the IC50 [2] was 52 nM and the inhibition [3] was under 90%. The inhibition [4] was “Active”, the inhibition [5] was under 90% and the inhibition [6] was under 90%. For the same compound, the inhibition [7] was under 90%, the inhibition [8] was “Active” and the inhibition [9] was under 90%. The inhibition [10] was under 90%, the IC50 [11] was 1.3 nM and the inhibition [12] was under 90%. The IC90 [13] was 416 nM, the inhibition [14] was under 90% and the inhibition [15] was under 90%. It also gave an IC50 [16] of 5.6 nM, an inhibition [17] of under 90% and an inhibition [18] of under 90%. For the same compound, the IC50 [19] was over 1000 nM, the IC90 [20] was 118 nM and the IC50 [21] was 6.5 nM. The inhibition [22] was under 90%, the inhibition [23] was under 90% and the inhibition [24] was under 90%. The inhibition [25] was under 90%, the inhibition [26] was under 90% and the inhibition [27] was under 90%. The inhibition [28] was under 90%.
